Assay results: publication PMC6389962 (Nature Communications, 2019)
pEC50: −log10 of the molar value. Starred links: 1 amine or outer side, 2 acyl side, 3 side chain; linkers in the order of their positions; H or OH if unused. Positions of bridges follow the written chain, without caps; N, C: chain ends. Residues, ends and D or L forms follow the SMILES beside them. Chains are numbered I, II in the order given. X3 = C[C@@H](CNC(=O)[*:1])NC(=O)NC[C@H](CCC(=O)O)NC(=O)NC[C@H](Cc1ccc(O)cc1)N[*:2]

Columns and labels:
[1] = system: db/db mice; assay: Blood glucose study in db/db mice; format: in vivo, mouse; conditions: n = 5, 200 μg kg−1 (50 nmol kg−1) intraperitoneal, fed
Excerpt: Data are mean ± SEM. […] Source data are provided as a Source Data file

[2] = biological target: T1, mouse GLP-1 receptor (Mus musculus, UniProt O35659); assay: cell-based
T1 sequence (O35659 22-463): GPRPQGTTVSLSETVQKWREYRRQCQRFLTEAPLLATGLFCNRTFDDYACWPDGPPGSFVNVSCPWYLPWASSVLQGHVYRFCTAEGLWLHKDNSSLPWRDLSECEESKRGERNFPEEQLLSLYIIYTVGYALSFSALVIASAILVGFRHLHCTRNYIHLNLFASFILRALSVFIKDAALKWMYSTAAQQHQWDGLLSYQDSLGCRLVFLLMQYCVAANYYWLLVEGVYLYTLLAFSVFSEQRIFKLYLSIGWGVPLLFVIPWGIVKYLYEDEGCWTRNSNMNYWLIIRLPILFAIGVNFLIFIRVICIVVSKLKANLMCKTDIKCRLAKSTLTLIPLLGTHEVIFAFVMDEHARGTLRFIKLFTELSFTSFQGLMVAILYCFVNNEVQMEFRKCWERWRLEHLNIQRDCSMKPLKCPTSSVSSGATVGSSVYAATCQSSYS

[3] = system: normal mice (C57BL/6J); assay: Blood glucose study in normal fed mice; format: in vivo, mouse; set-up: key to In vivo activity (indicator): + active; +++: + + + more active
Experimental: In the first study, we evaluated the effect of the analogues on the blood glucose concentration of normal mice (Fig. 3). The fed mice were treated with the analogues and their blood glucose concentration was monitored before and after dosing for 6 h. […] Indeed, a decrease of blood glucose concentration is observed after 30 min and the effect is preserved for 4 h after dosing.
Fig. 3 Blood glucose study in mice. a–c Blood glucose concentration in normal mice (C57BL/6J, male, 20–25 g, n = 3) before and after dosing: 5 μg per mouse (50 nmol kg^−1) i.v. Formulation: 20 μg mL^−1 in PBS 1×. The dosing was done at T0. Data are mean ± SEM. […] Source data are provided as a Source Data file
After the acclimation period (at least 5 days), mice (male C57BL/6J mice (Charles River laboratories) 8 weeks old, 20–25 g) were randomized into 10 groups (n = 3 per group) according to their body weight. They were acutely treated via i.v. route at 10 am (5 µg per mouse). Blood glucose was measured before dosing and at 30 min, 1, 2, 4, 6 h after dosing in fed conditions.

[4] = in vitro; conditions: mouse, plasma, pH 7.4, % remaining analogue
Experimental: The oligomer was then diluted 1/50 with a solution of plasma/PBS pH 7.4 (1:1) to afford a final concentration of 5 µM and incubated at 37 °C (4 µL of the stock solution was diluted with 196 µL of plasma/PBS, pH 7.4, 1:1). Each compound was also incubated in the absence of plasma (196 µL of H2O/PBS, pH 7.4, 1:1). At the indicated time (20 min and 60 min) an aliquot of 70 µL was removed from each experimental reaction and pipetting into 175 µL of acetonitrile at 0 °C to quench the reaction (t = 0 min was determined using the reaction without plasma). The samples were frozen at –80 °C before analysis. The frozen samples were defrosted, stirred with a vortex 5 min and finally centrifuged 5 min at 16 °C (1500 × g). The supernatant was analysed by LC-MS. The time course of oligomer degradation was determined by integrating the area of the peak in the extracted ion chromatogram.
Supplementar y Figur e 2 : Mouse plasma degradation assay. […] Data are
mean ± SEM, n = 4. Source data are provided as a Source Data file (T able 2 tab).
Supplementar y Figur e 3.
Data are mean ± SEM, n = 3.
Source data are provided as a Source Data file […]

[5] = in vitro; conditions: isolated enzyme neprilysin, pH 8
Experimental: Stock solutions of the oligomers were prepared at a concentration of 400 µM in a solution of 50 mM HEPES buffer, 50 mM NaCl, 0.05% Tween-80, pH 8.0. Stock solution of NEP 24.11 was prepared at a concentration of 100 µg mL^−1 in water. Stability of oligomers to NEP 24.11 was assessed by conducting protease reaction in a 96-well plates at 20 °C. […] Each compound was also incubated in the absence of the enzyme (12 µL of HEPES buffer and 38 µL of oligomer). […] A portion of the quenched reaction solution was analysed by HPLC. The time course of peptide degradation was determined by integrating the area of each peak in a series of HPLC traces.

[6] = biological target: T1, mouse GLP-1 receptor

Row | SMILES | activity on blood glucose 48 h after a single dose [1] | pEC50 [2] | Emax ([2]; read-out: Top (best-fit value), variable slope four-parameter fit, unconstrained, 14: experiment 1) | In vivo activity (indicator) ([3]; mice, 50 nmol kg−1 i.v.) | effect on blood glucose concentration ([3]; normal fed C57BL/6J mice, n = 3, 5 μg per mouse (50 nmol kg−1) i.v., monitored 6 h) | remaining at 20 min, 5 µM [4] | remaining at 1 h, 5 µM [4] | half-life [5] | LogEC50 (best-fit value) [6] | Potency (%), percentage of potency compare to GLP-1-G^2 ([6]; cAMP production, from EC50)
1 | CCCCCCCCCCCCCCCC(=O)N[C@@H](CCC(=O)NCCCC[C@H](NC(=O)[C@H](C)NC(=O)[C@H](C)NC(=O)[C@H](CCC(N)=O)NC(=O)CNC(=O)[C@H](CCC(=O)O)NC(=O)[C@H](CC(C)C)NC(=O)[C@H](Cc1ccc(O)cc1)NC(=O)[C@H](CO)NC(=O)[C@H](CO)NC(=O)[C@@H](NC(=O)[C@H](CC(=O)O)NC(=O)[C@H](CO)NC(=O)[C@@H](NC(=O)[C@H](Cc1ccccc1)NC(=O)[C@@H](NC(=O)CNC(=O)[C@H](CCC(=O)O)NC(=O)[C@H](C)NC(=O)[C@@H](N)Cc1c[nH]cn1)[C@@H](C)O)[C@@H](C)O)C(C)C)C(=O)N[C@@H](CCC(=O)O)C(=O)N[C@@H](Cc1ccccc1)C(=O)N[C@H](C(=O)N[C@@H](C)C(=O)N[C@@H](Cc1c[nH]c2ccccc12)C(=O)N[C@@H](CC(C)C)C(=O)N[C@H](C(=O)N[C@@H](CCCNC(=N)N)C(=O)NCC(=O)N[C@@H](CCCNC(=N)N)C(=O)NCC(=O)O)C(C)C)[C@@H](C)CC)C(=O)O [liraglutide] | no more significant activity |  |  |  |  |  |  |  |  | 
2 | CC[C@H](C)[C@H](NC(=O)[C@H](Cc1ccccc1)NC(=O)[C@H](CCC(=O)O)NC(=O)[C@H](CCCCN)NC(=O)[C@H](C)NC(=O)[C@H](C)NC(=O)NC[C@H](C)NC(=O)NC[C@H](CCC(=O)O)NC(=O)NC[C@H](Cc1ccc(O)cc1)NC(=O)[C@H](Cc1ccc(O)cc1)NC(=O)[C@H](CO)NC(=O)[C@H](CO)NC(=O)[C@@H](NC(=O)[C@H](CC(=O)O)NC(=O)[C@H](CO)NC(=O)[C@@H](NC(=O)[C@H](Cc1ccccc1)NC(=O)[C@@H](NC(=O)CNC(=O)[C@H](CCC(=O)O)NC(=O)CNC(=O)[C@@H](N)Cc1c[nH]cn1)[C@@H](C)O)[C@@H](C)O)C(C)C)C(=O)N[C@@H](C)C(=O)N[C@@H](Cc1c[nH]c2ccccc12)C(=O)N[C@@H](CC(C)C)C(=O)N[C@H](C(=O)N[C@@H](CCCCN)C(=O)NCC(=O)N[C@@H](CCCNC(=N)N)C(=O)NCC(N)=O)C(C)C [compound 9, GG2[Y^uE^uA^u]^14-17] (I: AAKEFIAWLVKGRG-NH2 / II: H-HGEGTFTSDVSSY; linker I:N-II:C via X3) |  | 9.74 | 88.2% | + | showed efficacy but no improvement | 33.1% | 11.7% | 180 min | -9.749 | 135%
